Test results taken from patent US20070231260A1, “Transporter-targeted methods of diagnosis and treatment” (priority 2005, published 2007).

Tested on: cells that overexpress MCT1
Assay: Cytotoxicity (GI50) of bromopyruvate in cells not expressing MCT1 (-TET) and induced to express MCT1 (+TET)
Type: cell-based
Details: GI50, +TET vs -TET cells; FIG. 2

Compound: O=C(O)C(=O)CBr [bromopyruvate, Bromopyruvate]
- fold higher toxicity to cells that overexpress MCT1: more than 20 times
